{"source": "paper PMC9736856", "about": "“Biological Investigation and Chemical Study of Brassica villosa subsp. drepanensis (Brassicaeae) Leaves” (Molecules, 2022)", "key": {"[1]": {"assay": "ABTS radical-scavenging assay", "conditions": "cell free", "procedure": "In this assay, a solution of ABTS radical cations was mixed with a potassium persulphate solution and stored at room temperature for 12 h. The obtained solution was diluted with ethanol, read to obtain an absorbance of 0.70 at 734 nm, and added to the tested sample (1–400 μg/mL). After 6 min, the absorbance was read at 734 nm. Ascorbic acid was the positive control. The ABTS radical-scavenging ability was calculated with this equation: [(A0−A1)/A0] × 100, where A0 is the absorbance of the control and A1 is the absorbance in the presence of the samples."}, "DPPH test": {"assay": "DPPH test", "conditions": "positive control", "procedure": "Free radical-scavenging capacity was analysed through the ability of the total extract and the fractions to bleach the stable radical DPPH. […] Briefly, after 10 min at room temperature, the absorbance at λ = 517 nm of the DPPH reaction mixture containing different concentrations of […] extract (125-1000 μg/mL) in 1 mL of ethanol was recorded. Results, expressed as decrease in absorbance, represent the average ± S.D. of three independent experiments."}, "CaCo-2 cells": {"test_system": "CaCo-2 cells", "assay": "MTT assay, CaCo-2", "assay_type": "cell-based", "conditions": "Homo sapiens, read-out: IC50 (MTT, cytotoxicity standard)", "procedure": "The human foreskin fibroblast cell line HFF-1 (ATCC® SCRC-1041.1) was maintained in DMEM supplemented with 15% v/v foetal bovine serum (FBS), 4.5 g/L glucose, 100 U/mL penicillin, and […] streptomycin. HFF-1 was used as an in vitro human model for preliminary toxicity screening. Mouse leukemic monocyte-macrophage cells RAW 264.7 (Sigma-Aldrich 91062702) were cultured in EMEM supplemented with 2 mM L-Glutamine (Euroclone, Milan, Italy), 1% non-essential amino acids, 10% FBS, and penicillin/streptomycin/amphotericin. […] was used as an in vitro model of LPS-induced inflammation. Human colon carcinoma cells CaCo-2 (ATCC®, HTB-37) were cultured in DMEM supplemented with 10% FBS, 1 mmol/L sodium pyruvate, 2 mmol/L L-glutamine, streptomycin ([…]), and penicillin (50 U/mL). […]\nHFF-1, RAW 264.7, CaCo-2, DU145, 1321N1, and U87 MG cells were treated with different concentrations of total extract (25–50–100–150–250–500–1000 μg/mL), while RAW 264.7 cells were also treated with the fractions obtained from the total extract (EtOAc, n-BuOH, and H2O) at the same concentrations (25–50–100–150–250–500–1000 μg/mL) for 24 h. […] The absorbance of the converted formazan was measured using a microplate spectrophotometer reader (Titertek Multiskan, Flow Laboratories, Helsinki, Finland) at λ = 570 nm. […]"}, "[2]": {"assay": "β-carotene bleaching test", "procedure": "The β-carotene bleaching test was performed following the procedure previously described, using propyl gallate as the positive control. […] The microplate was located in a water bath at 45 °C and the absorbance was read at 470 nm against a blank at t = 0 and after 30 and 60 min of incubation."}, "[3]": {"assay": "SOD-like activity (superoxide anion scavenging, NADH oxidation)", "conditions": "positive control", "procedure": "The scavenger effect of B. drepanensis extract and the fractions on superoxide anions was recorded as a decrease in absorbance at λ = 340 nm, as previously reported by Salerno et al.. […] SOD (80 mU) was used as a reference compound."}}, "data": [{"molecule": "O=C1O[C@H]([C@@H](O)CO)C(O)=C1O", "note": "[Ascorbic acid, ascorbic acid]", "values": [{"measurement": "ABTS Test IC50", "setting": "[1]", "result": "1.73 ± 0.06", "unit": "µg/mL"}]}, {"molecule": "Cc1c(C)c2c(c(C)c1O)CCC(C)(C(=O)O)O2", "note": "(stereo not drawn) [Trolox]", "values": [{"measurement": "IC50", "setting": "DPPH test", "result": 15, "unit": "µM"}]}, {"molecule": "COc1cccc2c1C(=O)c1c(O)c3c(c(O)c1C2=O)C[C@@](O)(C(=O)CO)C[C@@H]3O[C@H]1C[C@H](N)[C@H](O)[C@H](C)O1", "note": "[doxorubicin, Doxorubicin]", "values": [{"measurement": "IC50", "setting": "CaCo-2 cells", "result": "21 ± 0.3", "unit": "µM"}]}, {"molecule": "CCCOC(=O)c1cc(O)c(O)c(O)c1", "note": "[Propyl gallate, propyl gallate]", "values": [{"measurement": "β-Carotene Bleaching Test IC50", "setting": "[2]; after 30 min of incubation", "result": "0.09 ± 0.04", "unit": "µg/mL"}, {"measurement": "β-Carotene Bleaching Test IC50", "setting": "[2]; after 60 min of incubation", "result": "0.09 ± 0.04", "unit": "µg/mL"}]}, {"molecule": "superoxide dismutase [SOD]", "values": [{"measurement": "SOD-like Activity IC50", "setting": "[3]", "result": "40 mU ± 0.85"}]}]}
